Our source for the IC50 values is patent US12172990B2 (Constellation Pharmaceuticals, Inc., priority 2018, dated 2024).

Experiment [1] concerns the target full length human TREX1 (Homo sapiens (Human), UniProt Q9NSU2). Nature of the experiment: TREX1 Biochemical Assay (fluorescence assay measuring degradation of dsDNA substrate). To be noted: 150 pM TREX1, 60 nM dsDNA substrate, 25 minutes at room temperature. In outline:
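His-Tev-tagged full-length human TREX1 expressed in E. coli, 150 pM final, with 60 nM TEX615/quencher-labelled 9-mer dsDNA in Tris pH 7.4, NaCl, DTT, BSA, Tween-20, MgCl2 and 1.0% DMSO; 25 min at room temperature, EDTA-quenched. Fluorescence 615 nm (excitation 570 nm); 10-point IC50 by four-parameter fit against pre-quenched and no-inhibitor controls.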

Experiment [2] has as its target human TREX2 (residues M44-A279) (Homo sapiens (Human), UniProt Q9BQ50). Description: TREX2 Biochemical Assay (fluorescence assay measuring degradation of dsDNA substrate). To be noted: 2.5 nM TREX2, 60 nM dsDNA substrate, 25 minutes at room temperature. In outline:
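Final conditions: 2.5 nM His-Tev-tagged TREX2 (E. coli-expressed), 60 nM fluorophore/quencher-labelled dsDNA, 50 mM Tris pH 7.4, 150 mM NaCl, 100 mM MgCl2, 1% DMSO; 10-point compound dose-response. Incubated 25 min at room temperature, then EDTA-quenched; fluorescence read at ex 570/em 615 nm. IC50 from four-parameter fit against pre-quenched and no-inhibitor controls.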

The structures appear in SMILES notation.

The term IC50 denotes the midpoint of a concentration-inhibition curve. Low values mean higher potency, high ones lower potency.

Sequence of full length human TREX1 (Q9NSU2 whole entry): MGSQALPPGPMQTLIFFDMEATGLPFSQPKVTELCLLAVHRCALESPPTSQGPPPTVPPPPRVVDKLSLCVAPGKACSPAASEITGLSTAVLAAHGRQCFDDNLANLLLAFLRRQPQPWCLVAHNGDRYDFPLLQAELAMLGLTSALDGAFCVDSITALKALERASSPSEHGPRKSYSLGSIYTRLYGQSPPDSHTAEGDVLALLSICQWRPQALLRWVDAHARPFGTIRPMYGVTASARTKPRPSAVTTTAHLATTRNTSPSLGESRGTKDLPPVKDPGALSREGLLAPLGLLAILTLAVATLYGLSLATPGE
Sequence of human TREX2 (residues M44-A279) (Q9BQ50 whole entry, the tested form may be a part): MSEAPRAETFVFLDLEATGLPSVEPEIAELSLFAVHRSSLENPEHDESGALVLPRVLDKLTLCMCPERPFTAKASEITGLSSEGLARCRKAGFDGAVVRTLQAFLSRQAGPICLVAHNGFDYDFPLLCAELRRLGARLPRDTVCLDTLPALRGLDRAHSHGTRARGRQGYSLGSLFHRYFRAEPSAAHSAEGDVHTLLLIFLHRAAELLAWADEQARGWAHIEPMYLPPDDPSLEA

With `Cn1c(C2CCCN(C(=O)c3ccccn3)C2)nc(C(=O)Nc2cnoc2)c(O)c1=O` (stereo not drawn) [Example 40, 5-hydroxy-N-(isoxazol-4-yl)-1-methyl-6-oxo-2-(1-picolinoylpiperidin-3-yl)-1,6-dihydropyrimidine-4-carboxamide], the 50% inhibitory concentration (IC50) in experiment [1] is 100 to 1000 nM; in experiment [2] it was 1000 to 10000 nM.

`Cn1c(-c2ccccc2Br)nc(C(=O)Nc2cnoc2)c(O)c1=O` [Example 9, 2-(2-bromophenyl)-5-hydroxy-N-(isoxazol-4-yl)-1-methyl-6-oxo-1,6-dihydropyrimidine-4-carboxamide]: the IC50 lay within 100 to 1000 nM in experiment [1] and 10000 to 100000 nM in experiment [2].

For `Cn1c(C2CCCN(C(=O)c3ccc(Cl)cc3)C2)nc(C(=O)Nc2cnoc2)c(O)c1=O` (stereo not drawn) [Example 59, 2-(1-(4-chlorobenzoyl)piperidin-3-yl)-5-hydroxy-N-(isoxazol-4-yl)-1-methyl-6-oxo-1,6-dihydropyrimidine-4-carboxamide], the half-maximal inhibitory concentration (IC50) in experiment [1] was 100 to 1000 nM; in experiment [2] it was 1000 to 10000 nM.

Consider `Cn1c(C2(COCc3ccccc3)CCCN(C(=O)OC(C)(C)C)C2)nc(C(=O)Nc2cnoc2)c(O)c1=O` (stereo not drawn) [Example 52, tert-butyl 3-((benzyloxy)methyl)-3-(5-hydroxy-4-(isoxazol-4-ylcarbamoyl)-1-methyl-6-oxo-1,6-dihydropyrimidin-2-yl)piperidine-1-carboxylate], for which the IC50 in experiment [1] is 100 to 1000 nM; in experiment [2], 1000 to 10000 nM.

With `Cn1c([C@H]2CCCN(C(=O)c3ccc(F)c(Cl)c3)C2)nc(C(=O)Nc2cnoc2)c(O)c1=O` [Example 88, (S)-2-(1-(3-chloro-4-fluorobenzoyl)piperidin-3-yl)-5-hydroxy-N-(isoxazol-4-yl)-1-methyl-6-oxo-1,6-dihydropyrimidine-4-carboxamide], the IC50 in experiment [1] is less than 100 nM; in experiment [2] it was 1000 to 10000 nM.

Take `Cn1c(C2CCCN(CC(F)(F)F)C2)nc(C(=O)Nc2cnoc2)c(O)c1=O` (stereo not drawn) [Example 98, 5-hydroxy-N-(isoxazol-4-yl)-1-methyl-6-oxo-2-(1-(2,2,2-trifluoroethyl)piperidin-3-yl)-1,6-dihydropyrimidine-4-carboxamide]: the 50% inhibitory concentration (IC50) is 100 to 1000 nM in experiment [1] and 10000 to 100000 nM in experiment [2].

As to `Cn1c(C2CCCN(S(=O)(=O)c3ccccc3)C2)nc(C(=O)Nc2cnoc2)c(O)c1=O` (stereo not drawn) [Example 57, 5-hydroxy-N-(isoxazol-4-yl)-1-methyl-6-oxo-2-(1-(phenylsulfonyl)piperidin-3-yl)-1,6-dihydropyrimidine-4-carboxamide], the concentration for half-maximal inhibition (IC50) in experiment [1] is 100 to 1000 nM; in experiment [2] it was 10000 to 100000 nM.

For the molecule `Cn1c(Cc2ccccc2)nc(C(=O)Nc2cnoc2)c(O)c1=O` [Example 6, 2-benzyl-5-hydroxy-N-(isoxazol-4-yl)-1-methyl-6-oxo-1,6-dihydropyrimidine-4-carboxamide], the values for the concentration for half-maximal inhibition (IC50) in experiment [1] and in experiment [2] were 100 to 1000 nM and 10000 to 100000 nM, respectively.

On to `Cn1c(N2CCCC[C@@H]2CCO)nc(C(=O)Nc2cnoc2)c(O)c1=O` [Example 107, (R)-5-hydroxy-2-(2-(2-hydroxyethyl)piperidin-1-yl)-N-(isoxazol-4-yl)-1-methyl-6-oxo-1,6-dihydropyrimidine-4-carboxamide], for which the concentration for half-maximal inhibition (IC50) in experiment [1] was less than 100 nM; in experiment [2], 1000 to 10000 nM.

As for `CC(=O)N1CCN(c2nc(C(=O)Nc3cnoc3)c(O)c(=O)n2C)[C@H](c2ccccc2Cl)C1` [Example 128, (R)-2-(4-acetyl-2-(2-chlorophenyl)piperazin-1-yl)-5-hydroxy-N-(isoxazol-4-yl)-1-methyl-6-oxo-1,6-dihydropyrimidine-4-carboxamide], the IC50 in experiment [1] is less than 100 nM; in experiment [2], less than 1000 nM.

`CC(C)CNC(=O)N1CCCC(c2nc(C(=O)Nc3cnoc3)c(O)c(=O)n2C)C1` (stereo not drawn) [Example 95]: the IC50 in experiment [1] is 100 to 1000 nM; in experiment [2], 10000 to 100000 nM.

Regarding `Cn1c([C@H]2CCCCN2CCO)nc(C(=O)Nc2cnoc2)c(O)c1=O` [Example 104, (R)-5-hydroxy-2-(1-(2-hydroxyethyl)piperidin-2-yl)-N-(isoxazol-4-yl)-1-methyl-6-oxo-1,6-dihydropyrimidine-4-carboxamide], the 50% inhibitory concentration (IC50) in experiment [1] was 1000 to 10000 nM; in experiment [2], more than 100000 nM.

Consider `Cn1c(-c2cccc(Br)c2OCCO)nc(C(=O)Nc2cnoc2)c(O)c1=O` [Example 15, 2-(3-bromo-2-(2-hydroxyethoxy)phenyl)-5-hydroxy-N-(isoxazol-4-yl)-1-methyl-6-oxo-1,6-dihydropyrimidine-4-carboxamide], for which the figures for the half-inhibitory concentration (IC50) in experiment [1] and in experiment [2] were less than 100 nM and less than 1000 nM, respectively.

As to `Cn1c([C@@H]2CCCN(C(=O)c3ccc(Cl)c(Cl)c3)C2)nc(C(=O)Nc2cnoc2)c(O)c1=O` [Example 131, (R)-2-(1-(3,4-dichlorobenzoyl)piperidin-3-yl)-5-hydroxy-N-(isoxazol-4-yl)-1-methyl-6-oxo-1,6-dihydropyrimidine-4-carboxamide], the values for the concentration for half-maximal inhibition (IC50) in experiment [1] and in experiment [2] were less than 100 nM and less than 1000 nM, respectively.

As for `Cn1c(C2CCCN(C(=O)c3cccc(Cl)c3)C2)nc(C(=O)Nc2cnoc2)c(O)c1=O` (stereo not drawn) [Example 45, 2-(1-(3-chlorobenzoyl)piperidin-3-yl)-5-hydroxy-N-(isoxazol-4-yl)-1-methyl-6-oxo-1,6-dihydropyrimidine-4-carboxamide], the concentration for half-maximal inhibition (IC50) in experiment [1] is less than 100 nM; in experiment [2], 1000 to 10000 nM.

As to `Cn1c(-c2ccccc2-c2ccncc2)nc(C(=O)Nc2cnoc2)c(O)c1=O` [Example 67, 5-hydroxy-N-(isoxazol-4-yl)-1-methyl-6-oxo-2-(2-(pyridin-4-yl)phenyl)-1,6-dihydropyrimidine-4-carboxamide], the results for the IC50 in experiment [1] and in experiment [2] were 1000 to 10000 nM and 10000 to 100000 nM, respectively.

Take `Cn1c(CC2CCCN(C(=O)OC(C)(C)C)C2)nc(C(=O)Nc2cnoc2)c(O)c1=O` (stereo not drawn) [Example 18, tert-butyl 3-((5-hydroxy-4-(isoxazol-4-ylcarbamoyl)-1-methyl-6-oxo-1,6-dihydropyrimidin-2-yl)methyl)piperidine-1-carboxylate]: the concentration for half-maximal inhibition (IC50) in experiment [1] is 100 to 1000 nM; in experiment [2], 10000 to 100000 nM.

For `Cn1c(Oc2ccccc2)nc(C(=O)Nc2cnoc2)c(O)c1=O` [Example 120, 5-hydroxy-N-(isoxazol-4-yl)-1-methyl-6-oxo-2-phenoxy-1,6-dihydropyrimidine-4-carboxamide], the IC50 in experiment [1] was less than 100 nM; in experiment [2] it was 1000 to 10000 nM.

For `Cn1c(-c2ccncc2)nc(C(=O)Nc2cnoc2)c(O)c1=O` [Example 21, 5-hydroxy-N-(isoxazol-4-yl)-1-methyl-6-oxo-2-(pyridin-4-yl)-1,6-dihydropyrimidine-4-carboxamide], the IC50 in experiment [1] was 1000 to 10000 nM; in experiment [2], more than 100000 nM.

On to `Cn1c(-c2ccccc2)nc(C(=O)Nc2cnoc2)c(O)c1=O` [Example 8, 5-hydroxy-N-(isoxazol-4-yl)-1-methyl-6-oxo-2-phenyl-1,6-dihydropyrimidine-4-carboxamide], for which the IC50 in experiment [1] was in the range of 100 to 1000 nM; in experiment [2], 10000 to 100000 nM.

Turning to `Cn1c(C2CCCN(S(C)(=O)=O)C2)nc(C(=O)Nc2cnoc2)c(O)c1=O` (stereo not drawn) [Example 87, 5-hydroxy-N-(isoxazol-4-yl)-1-methyl-2-(1-(methylsulfonyl)piperidin-3-yl)-6-oxo-1,6-dihydropyrimidine-4-carboxamide], the figures for the IC50 in experiment [1] and in experiment [2] were 1000 to 10000 nM and 10000 to 100000 nM, respectively.

Take `Cn1c([C@H]2CCCN(S(=O)(=O)c3ccc(Cl)c(Cl)c3)C2)nc(C(=O)Nc2cnoc2)c(O)c1=O` [Example 92, (S)-2-(1-((3,4-dichlorophenyl)sulfonyl)piperidin-3-yl)-5-hydroxy-N-(isoxazol-4-yl)-1-methyl-6-oxo-1,6-dihydropyrimidine-4-carboxamide]: the half-maximal inhibitory concentration (IC50) in experiment [1] lay in the range of 100 to 1000 nM; in experiment [2] it was 10000 to 100000 nM.

Turning to `Cn1c(C2CCCN(Cc3ccccc3)C2)nc(C(=O)Nc2cnoc2)c(O)c1=O` (stereo not drawn) [Example 39, 2-(1-benzylpiperidin-3-yl)-5-hydroxy-N-(isoxazol-4-yl)-1-methyl-6-oxo-1,6-dihydropyrimidine-4-carboxamide], the results for the half-inhibitory concentration (IC50) in experiment [1] and in experiment [2] were 1000 to 10000 nM and 10000 to 100000 nM, respectively.

Regarding `CC(=O)N1CCCN(c2nc(C(=O)Nc3cnoc3)c(O)c(=O)n2C)CC1` [Example 111, 2-(4-acetyl-1,4-diazepan-1-yl)-5-hydroxy-N-(isoxazol-4-yl)-1-methyl-6-oxo-1,6-dihydropyrimidine-4-carboxamide], the IC50 in experiment [1] lay within 100 to 1000 nM; in experiment [2] it was 10000 to 100000 nM.

Take `Cn1c(-c2ccccc2NCCCO)nc(C(=O)Nc2cnoc2)c(O)c1=O` [Example 75, 5-hydroxy-2-(2-((3-hydroxypropyl)amino)phenyl)-N-(isoxazol-4-yl)-1-methyl-6-oxo-1,6-dihydropyrimidine-4-carboxamide]: the IC50 in experiment [1] is more than 10000 nM; in experiment [2] it was more than 100000 nM.

As for `Cn1c(N2CCN(c3ccccn3)C[C@@H]2c2ccccc2Cl)nc(C(=O)Nc2cnoc2)c(O)c1=O` [Example 125, (S)-2-(2-(2-chlorophenyl)-4-(pyridin-2-yl)piperazin-1-yl)-5-hydroxy-N-(isoxazol-4-yl)-1-methyl-6-oxo-1,6-dihydropyrimidine-4-carboxamide], the figures for the IC50 in experiment [1] and in experiment [2] were less than 100 nM and less than 1000 nM, respectively.

For the molecule `Cn1c(C(NC(=O)OCc2ccccc2)c2ccc(Br)cc2)nc(C(=O)Nc2cnoc2)c(O)c1=O` (stereo not drawn) [Example 24, benzyl ((4-bromophenyl)(5-hydroxy-4-(isoxazol-4-ylcarbamoyl)-1-methyl-6-oxo-1,6-dihydropyrimidin-2-yl)methyl)carbamate], the concentration for half-maximal inhibition (IC50) in experiment [1] is 100 to 1000 nM; in experiment [2], more than 100000 nM.
